Read-outs that look alike come from different tables or passages of the source.
Experiments:
Type in all cases: cell-based, human
[1] = system: MonoMac-6 cells; assay: Cytokine Profile Assay (CPA): neopterin production by stimulated MonoMac-6 cells, ELISA; conditions: for neopterin release (in words): chemicals, in the presence or absence of IFN-γ
Source text: (§1) The instructions of the manufacturers were followed. All these tests are enzyme immunoassays (EIA:s). The principle is that microtiter plate wells are labelled with a cytokine specific capture antibody. If cytokine is present in the samples added to the wells it will be captured to the bottom of the well. […] The reaction is thereafter measured as colour developed after addition of a substrate for the enzyme. The values for the test wells are compared with a standard curve obtained by adding a series of known amounts of cytokine. The values obtained for control wells with no substance added are used as background values for cytokine levels.
The myelomonocytic cell line MonoMac-6 (obtained from DSMZ, accession number ACC 124, Prof. H. W. L. Ziegler-Heitbrock, Inst. For Immunology, University of Munich, Munich) was cultured in cell culture flasks (Corning). Cells were cultured in RPMI 1640 medium (Gibco BRL), containing 20 mM HEPES and L-glutamine and supplemented with 10% heat-inactivated foetal bovine serum (Gibco BRL), penicillin (100 U/mL; Sigma-Aldrich), streptomycin (100 μg/mL; Sigma-Aldrich), sodium pyruvate (1.0 mM;Gibco BRL), human insulin (9 μg/mL; Gibco BRL) and non-essential amino acids (Gibco BRL) or cultured in Panserin 411 (Pan Biotech) supplemented with penicillin (100 U/mL), streptomycin (100 μg/mL).
The cells were split approximately 1:3 the day before stimulation. The stimulation procedure was performed in three steps. The first step was pre-dilution of test substances, to double the final concentration, in cell culture medium. Furthermore, Interferon-γ (IFN-γ) (100 U, PreproTech) was added in the cell culture media for 24 or 48 hours during stimulation of cells with test substances. The number of cells was then determined by trypan blue exclusion and the cells were diluted to twice the final test concentration (2×10^6 cells/mL) if not otherwise indicated and 100 μl of cell suspension was added per well in 96 well tissue culture plates (Corning). Finally, a 100 μl of pre-diluted test substance (triplicate cultures) was added to the tissue culture plates. […] The stimulated cells were cultured at 37° C., 5% CO2, for 24 or 48 hours. The cell suspension was transferred to new cell culture plates and stored at −20° C. until analyzed. Thereafter the cell suspension was analyzed for presence of neopterin and IL-10 by ELISA (IBL-Hamburg) following the manufacturers instructions.

[2] = system: THP-1 cells; assay: CPA: neopterin production by stimulated THP-1 cells; conditions: RPMI+10% FCS, 24 hrs, different concentrations
Source text: as §1
(§2) The cells were split approximately 1:3 the day before stimulation. The stimulation procedure was performed in three steps. The first step was pre-dilution of test substances, to double the final concentration, in cell culture medium. […] The number of cells was then determined by trypan blue exclusion and the cells were diluted to twice the final test concentration (2×10^6 cells/mL) if not otherwise indicated and 100 μl of cell suspension was added per well in 96 well tissue culture plates (Corning). […] The cell suspension was transferred to new cell culture plates and stored at −20° C. until analyzed. Thereafter the cell suspension was analyzed for presence of neopterin and IL-10 by ELISA (IBL-Hamburg) following the manufacturers instructions.

[3] = system: MM6-cells; assay: CPA: IL-10 levels of stimulated MM6 cells, ELISA; conditions: 25-200 μg/ml; 48 hours; with IFN-γ 100 U/ml
Source text: as §1, with “levels. […]” for “levels.”
as §2, with “stimulation.” for “stimulation. The stimulation procedure was performed in three steps. The first step was pre-dilution of test substances, to double the final concentration, in cell culture medium.”

[4] = proteins, RPMI+10% FCS, 24 hrs, with IFN-γ 100 U/ml, over the tested concentrations

`O=[N+]([O-])c1ccc(Cl)c([N+](=O)[O-])c1` [DNCB, 2,4 Dinitrocholorobenzene, reference compound] was tested, and the “neopterin release (in words)” value ([1]; RPMI+10% FCS, 24 hrs) was “none of the chemicals tested induced any neopterin release above background levels”.

For `[Cl][Pt-2]([Cl])([Cl])([Cl])([Cl])[Cl].[NH4+].[NH4+]` [HCPt, Ammonium hexachloroplatinate, reference compound], the “neopterin release (in words)” value ([1]; RPMI+10% FCS, 24 hrs) was “none of the chemicals tested induced any neopterin release above background levels”.

For `CCOC(=O)c1ccc(N)cc1` [benzocaine, Benzocaine, reference compound], the “neopterin response (in words)” value ([1]; chemical at 30 μg/ml, with IFN-γ, RPMI+10% FCS, 24 hrs) was “induced a neopterin response above background levels”.

With `Oc1ccccc1` [phenol, reference compound] the “neopterin response (in words)” value [1] was “induced a neopterin response above background levels”.

For Lipopolysaccharide [LPS], the “neopterin response (in words)” value [2] was “Dose response was seen”.

“Soy lectin: Lectin: glycine max (soy been) (Medicago), low potential of being allergenic” was tested, and the “neopterin response (in words)” value ([1]; 6.6 μg/ml, RPMI+10% FCS, 24 hrs, with IFN-γ) was “did not induce any neopterin response above the levels of control cells”, the “neopterin response (in words)” value ([1]; 180 μg/ml, RPMI+10% FCS, 24 hrs, with IFN-γ) was “comparable to the cellular response towards Ara h 2 at 6.6 μg/ml” and the “neopterin response (in words)” value [1, 4] was “Weak cellular neopterin responce”. For the same compound, the “neopterin response (in words)” value ([1]; proteins, RPMI+10% FCS, 24 hrs, with IFN-γ 100 U/ml, over the tested concentrations, listed as soy lectin) was “did not induce neopterin above background levels”.

With gelatin the “neopterin response (in words)” value [1, 4] was “did not induce any neopterin production above the background levels” and the “IL-10 levels (in words)” value [3] was “did not induce IL-10 above background levels”.

Reference: US20110053163A1, “Biomarker” (BIOVATOR TECHNOLOGIES AB, priority 2007, published 2011)
